# Measurements from PubChem BioAssay AID1996.
# Residues, ends and D or L forms follow the SMILES beside them.
# Conditions: buffer; pH 7.4; 200.0 µM
row,solubility kinetic [µg/mL],SMILES
1,> 68.8,COc1cc(-c2nnc(SCc3cc(=O)oc4cc(O)c(O)cc34)o2)cc(OC)c1OC
2,27.8,Brc1ccccc1Cn1cnc2ccccc21
3,> 51.2,COC(=O)c1ccc(C(=O)OC)c(NC(=O)CSCC(=O)O)c1
4,10.5,Cc1ccc(Nc2cc(C)c(O)c(C)c2)cc1
5,> 44.6,O=C(NC1CCS(=O)(=O)C1)C1C2CC3CC(C2)CC1C3 (stereo unspecified)
6,> 75.5,CCOc1cc(C(=O)Nc2ccc(S(=O)(=O)Nc3onc(C)c3C)cc2)cc(OCC)c1OCC
7,> 60.5,O=C(NNC(=O)C1CCN(S(=O)(=O)c2ccccc2)CC1)c1ccccc1O
8,28,Cn1c(Nc2ccc(F)cc2)nc2ccccc21
9,26.3,COC(=O)c1cc(Sc2cccc(Cl)c2Cl)ccn1
10,> 48.7,N#Cc1c(SCC(N)=O)nc2c(c1-c1ccncc1)CCCC2
11,> 62,CNC(=O)Oc1ccc2c(c1)[C@]1(C)CCN(C)C1N2C.O=C(O)c1ccccc1O (stereo partly specified)
12,32.5,O=C(NC(=S)N1CCCC1)c1ccc(Cl)cc1Cl
13,50.6,O=C(O)CC1(CC(=O)Nc2ccc3c(c2)OCCCO3)CCCCC1
14,> 49.1,COc1ccc(CCN=C(C)c2cc(C)c(C)cc2O)cc1OC
15,3.8,Cc1nc2nc(-c3cccs3)[nH]c2cc1Br
16,> 50,CSc1nsc(SCC(=O)Nc2ccc(F)cc2F)n1
17,41.8,Cn1ccnc1SCC(=O)Nc1cc(F)ccc1F
18,> 49.2,CC(=O)N(CCCN(C)C)c1nc2ccc(C)cc2s1.Cl
19,> 49.6,CC1CCCCN1C(=O)Cn1cnc2cc([N+](=O)[O-])ccc2c1=O (stereo unspecified)
20,> 49.4,CCCCCCOc1ccc(C(=O)NCCCn2ccnc2)cc1

row,solubility kinetic [µg/mL],SMILES
1,33.9,COc1ccc(NC(=O)NCCN2CCCCC2)cc1
2,28.2,Cc1csc(NC(=O)CCCc2cccs2)n1
3,4.8,CCOc1ccc(NC(=O)CSc2nc(=O)n(Cc3cccnc3)c3c2CCC3)cc1
4,43.1,O=C(Cc1ccccc1)N1CCC2(CC1)NCCc1[nH]cnc12
5,> 54.8,CSCCC1NC(=O)N(CC(=O)Nc2ccc3c(c2)OCCO3)C1=O (stereo unspecified)
6,0.9,CC(C)c1ccc(NS(=O)(=O)c2ccc3c(c2)oc(=O)n3C)cc1
7,> 28.5,Cc1nnc(SCC(=O)O)s1
8,0.5,Cn1c(=O)oc2cc(S(=O)(=O)N3CCc4ccccc43)ccc21
9,3.1,COc1ccccc1NC(=O)CN1CCSc2ccccc21
10,> 44.4,Nc1nc(NCCO)nc(N2CCCCCC2)c1[N+](=O)[O-]
11,> 46.9,CCOC(=O)c1cc(S(=O)(=O)NCc2ccco2)cn1C
12,> 46.6,NC(=O)COC(=O)CCCSc1nc2ccccc2s1
13,> 50.3,CCOC(=O)C1CCN(C(=O)COc2ccc3c(c2)OCO3)CC1
14,1.7,Cc1ccc(C(=O)C2CCN(CC(=O)Nc3ccccc3C)CC2)cc1
15,> 40.7,O=C(NCCCCc1ccccc1)c1ccccc1F
16,6.4,Cc1ncc([N+](=O)[O-])n1CC(=O)Nc1ccc(F)c(F)c1
17,6.2,CCOc1ccccc1NCc1cc(=O)oc2cc(C)ccc12
18,> 75.1,COc1ccccc1OCC(O)CN1CCN(CC(=O)Nc2c(C)cccc2C)CC1.Cl (stereo unspecified)
19,> 51.1,O=C(N/C(=C\c1ccco1)C(=O)N1CCCC1CO)c1ccccc1 (stereo unspecified)
20,> 45.4,O=C(NC1CCCCCC1)C1CCCN(c2ncccn2)C1 (stereo unspecified)

# Second part, the compound before the results:
row,SMILES,solubility kinetic [µg/mL]
1,Cn1c(Nc2cccc(Cl)c2)nc2ccccc21,5.5
2,COCCNC(=O)C12CC3CC(CC(Cl)(C3)C1)C2,> 40.8
3,O=C(Nc1cccc(Cl)c1)OC1CN2CCC1CC2 (stereo unspecified),3.6
4,O=C(Nc1ccc2c(c1)OCCO2)C(=O)NC1CC1,30.8
5,CCCNC(=O)COc1ncnc2sccc12,> 37.7
6,O=c1cnc2ccccc2n1Cc1ccc(Br)cc1,2.7
7,COc1cccc(NC(=O)Nc2ccc(Br)cn2)c1,< 0.2
8,Cc1ccc(OCC(=O)NC(C)c2ccccc2)c([N+](=O)[O-])n1 (stereo unspecified),47.1
9,COc1ccc(NC(=S)NC(=O)/C=C/c2ccc(F)cc2)cc1,< 0.4
10,CCC/C(O)=C1\C(=O)CCCC1=NCCc1c(C)[nH]c2ccc(C)cc12,0.4
11,CC1CN(C(=O)COC(=O)c2c(Cl)cccc2Cl)CC(C)O1 (stereo unspecified),49.5
12,CC(C)(C)c1ccc(C(=O)NCC(=O)NCc2ccccn2)cc1,42.9
13,Cc1cc(C)nc(Nc2nc(-c3ccccc3)cs2)n1,< 0.2
14,CC1CN(C(=O)COC(=O)c2cc3ccccc3cc2O)CC(C)O1 (stereo unspecified),12.7
15,CSC1=NCCN1C(=O)Cc1ccc(-c2ccccc2)cc1,4.1
16,CC1CC(O)(CC(O)(c2ccccc2)c2ccccc2)C(C)CN1C (stereo unspecified),> 50.9
17,CCOc1cccc(C(=O)Nc2cc(C)ccc2NC(=O)c2ccco2)c1,22
18,CC(C)c1nc(SCC(=O)NC2CCCCC2)c2ccccc2n1,1.8
19,CC(=O)NC(Cc1ccccc1)C(=O)NC(Cc1ccccc1)C(=O)O (stereo not drawn) (Ac-Phe-Phe-OH; configuration not given here),52.4
20,CC1CCN(C(=O)c2cc3ccccc3cc2O)CC1,> 40.4
21,Cc1cc(C)c(C#N)c(N)n1,> 22.1
22,CCC(C)Nc1cc(C)c(C#N)c2nc3ccccc3n12 (stereo unspecified),3.7
23,CCOC(=O)c1c(C)[nH]c(C)c1C(=O)COC(=O)c1cccs1,> 50.3

row,SMILES,solubility kinetic [µg/mL]
1,Cc1ccc(C(=O)NCC(=O)N2CCCCCC2)cc1,> 41.2
2,CCN1CCOC(CC(=O)Nc2ccc([N+](=O)[O-])cc2)C1=O (stereo unspecified),40.2
3,CCCc1nnc(NC(=O)CCC(=O)N2CCCCC2)s1,> 46.6
4,Cn1c(SCC(=O)Nc2nccs2)nnc1C1CC1,> 44.3
5,CCOC(=O)CC1C(=O)NCCN1C(=O)c1cccc(OC)c1 (stereo unspecified),44.4
6,Cc1nc2ncnn2c(C)c1Cc1cccc(C(F)(F)F)c1,> 45.9
7,CCOC(=O)C1CCN(S(=O)(=O)c2ccc(NC(C)=O)c(Cl)c2)CC1,7.3
8,c1ccc(NC2=NCCS2)cc1,23.5
9,C=CCn1c(=O)c(C(=O)NCc2ccc3c(c2)OCO3)c(O)c2ccccc21,1.3
10,COc1ccc(-c2cc(-c3ccccc3)nc(Cl)n2)cc1OC,< 0.3
11,Cn1c(=O)c(C(=O)NC2CCCCCC2)c(O)c2ccccc21,< 0.3
12,CCCCOc1c(Br)cc(CNCCCN2CCOCC2)cc1OC.Cl,60.9
13,O=S(=O)(c1ccc(F)cc1)N1CCCC1,> 34.4
14,CC(O/N=C(\N)c1ccccc1)C(=O)Nc1cccc(C(F)(F)F)c1 (stereo unspecified),> 52.7
15,O=C(Nc1ccccc1N1CCCCC1)c1cccc(Cl)c1,< 0.3
16,O=[N+]([O-])c1cccc(S(=O)(=O)N2CCCCC2)c1,37.5
17,O=c1[nH]c(/C=C/c2ccccc2Cl)nc2ccccc12,< 0.3
18,Cc1n(Cc2ccccc2)c2ccccc2[n+]1Cc1ccccc1.[Cl-],51.9
19,Cc1csc2c(N3CCCCC3)ncnc12,> 35
20,O=C1/C(=C/c2ccccc2Cl)N2CCC1CC2,22.8
21,C=CCn1c(N)cc(=O)nc1SCC(=O)Nc1ccc(C)cc1,14.8
22,Cc1cccc(-n2cc(-c3ccccc3)[nH]c2=S)c1,8.7
23,Fc1ccc(OCCCn2ccnc2)cc1,23.3
